Measurements taken from article PMC5328659 (Journal of clinical toxicology, 2016).

What was measured:
mice = assay type: in vivo, mice (Swiss Webster)
[1] = DZP quantification in plasma and brain by LC/MS; assay type: in vivo, mice; details: TPPU 3 mg/kg i.p., DZP 10 mg/kg
[2] = TPPU quantification in plasma and brain by LC/MS/MS; assay type: in vivo, mice
[3] = test system: soluble epoxide hydrolase (sEH); details: mice treated with DZP 10 mg/kg and TPPU 3 mg/kg
[4] = cited from earlier work
murine sEH = details: read-out: IC50 for murine sEH; cited from earlier work
[5] = 50 min after TPPU 3 mg/kg i.p. (5 min after DZP)
[6] = 105 min after TPPU 3 mg/kg i.p. (1 h after DZP)
[7] = midazolam 1.8 and 10 mg/kg intramuscular

CN1C(=O)CN=C(c2ccccc2)c2cc(Cl)ccc21 [DZP, diazepam]
Decrease of SBP from baseline (mice; DZP 1 mg/kg i.p.): 10–20%
Recovery time from hypotension (mice; DZP 1 mg/kg i.p.): 10 min
Hypotensive effect on BP, dose dependence (mice; DZP 1, 3, 10 mg/kg i.p.): led to hypotension in mice in a dose dependent manner
BP recovery at 24 h post treatment (mice; DZP 3 and 10 mg/kg i.p.): full recovery at 24 h post treatment
BP versus baseline at 5 and 6 h post DZP (mice; DZP 3 and 10 mg/kg i.p.): BP was still below baseline

CCC(=O)N1CCC(NC(=O)Nc2ccc(OC(F)(F)F)cc2)CC1 [TPPU]
Effect of TPPU on sudden drop in BP 5 min after DZP (mice; TPPU 3 mg/kg i.p. before DZP 3 and 10 mg/kg): did not prevent the sudden drop in BP
Recovery from DZP hypotension with TPPU versus DZP alone (mice; TPPU 3 mg/kg i.p. before DZP, P < 0.001): recovered significantly faster from hypotension
Efficacy of TPPU against hypotension at lowest DZP dose (mice; TPPU 3 mg/kg i.p., DZP 1 mg/kg): least effective
AUC of BP-time course, DZP plus TPPU versus DZP alone (mice; TPPU 3 mg/kg i.p., P < 0.05): significantly higher
Change in BP by TPPU alone or with DZP vehicle (without DZP) (mice; TPPU 3 mg/kg i.p., P = 0.56): did not elicit any significant changes
Efficacy of TPPU against midazolam induced hypotension (mice; TPPU 3 mg/kg i.p., midazolam 1.8 and 10 mg/kg, P = 0.004 at […]): effective only when administered with the low dose of midazolam
[TPPU] Brain [2, 5]: 32.8 ± 3.4 µM
[TPPU] Plasma [2, 5]: 11.8 ± 0.6 µM
[TPPU] Brain [2, 6]: 27.8 ± 2 µM
[TPPU] Plasma [2, 6]: 10 ± 0.3 µM
Increase of plasma EETs and EpOMEs [3]: 2–3 fold
Plasma elimination half-life ([4]; i.p. or oral administration): > 24 h

Cc1ncc2n1-c1ccc(Cl)cc1C(c1ccccc1F)=NC2 [midazolam]
Hypotensive effect on BP (mice; [7]): significant hypotension at both doses
Time of recovery from hypotension after administration (mice; [7]): 1 to 2 h
